Assay results: patent publication US20170058314A1, “NOVEL METHODOLOGY FOR IDENTIFYING ANTI-PERSISTER ACTIVITY AND ANTIMICROBIAL SUSCEPTIBILITY FOR BORRELIA BURGDORFERI AND OTHER BACTERIA” (priority 2014, published 2017)

Test system: M. tuberculosis H37Ra WT
Format: cell-based, Mycobacterium tuberculosis

With `NC(=O)c1cnccn1` [PZA, pyrazinamide] the “residual viability of H37Ra WT compared with PZA resistant mutants” value was “obviously decreased”.
